Assay results taken from article PMC10414583, “Structures of SARS-CoV-2 N7-methyltransferase with DOT1L and PRMT7 inhibitors provide a platform for new antivirals” (PLOS Pathogens, 2023).

Biological target: T1, SARS-CoV-2 nsp14/nsp10 complex (Severe acute respiratory syndrome coronavirus 2, UniProt P0DTD1)
T1 construct: gene rep; full-length mature nsp14 and nsp10 cut from replicase polyprotein 1ab; co-expressed from one pRSF-Duet-1 plasmid in E. coli BL21Gold (DE3), C-terminal 6xHis; with Non-structural protein 10
Assay: biochemical
Type: binding

Q: Which Kd does the source give for `Nc1nc2c(ncn2[C@@H]2O[C@H](COP(=O)(O)OP(=O)(O)OP(=O)(O)OC[C@H]3O[C@@H](n4cnc5c(N)ncnc54)[C@H](O)[C@@H]3O)[C@@H](O)[C@H]2O)c(=O)[nH]1` [GpppA RNA cap analog] here?
A: 20 µM

Q: `C[S+](CC[C@H](N)C(=O)O)C[C@H]1O[C@@H](n2cnc3c(N)ncnc32)[C@H](O)[C@@H]1O` (stereo partly shown) [SAM] was tested. Which Kd did it give?
A: ~6 µM

Q: For `CC(C)N(CCCNC(=O)Nc1ccc(C(C)(C)C)cc1)C[C@H]1O[C@@H](n2cc(Br)c3c(N)ncnc32)[C@H](O)[C@@H]1O` [SGC0946], which Kd is on record?
A: ~8 µM

Q: Which Kd does the source give for `Nc1ncnc2c1ncn2[C@@H]1O[C@H](CSCCCCNCc2cccc(-c3ccc(Cl)cc3)c2)[C@@H](O)[C@H]1O` [SGC8158] here?
A: ~6 µM
